# Experiments:
# [1] = Enzymatic stability in blood plasma; assay type: in vitro ADME
# Description: (§1) The major contribution is that PEGylation improved brain and blood enzymatic stability dramatically. […] After PEGylation, those half-lives increased to hours for endomorphin II.
# [2] = Enzymatic stability in brain tissue; assay type: in vitro ADME
# Description: as §1
# rat brain = assay: In situ rat brain perfusion (brain uptake); settings: radiolabeled compound
# Description: The protocol for the rat brain perfusion experiments was approved by the Institutional Animal Care and Use Committee at the University of Arizona. The in situ perfusion, capillary depletion, brain extract and protein binding studies were carried out as previously reported (Williams et al., J. Neurochem., 66 (3), pp 1289-1299, 1996).
# The protocol for the rat brain perfusion experiments was approved by the Institutional Animal Care and Use Committee at the University of Arizona. The in situ perfusion studies were carried out as previously reported (Williams et al., J. Neurochem., 66 (3), pp 1289-1299, 1996).
# male ICR mice = assay: Analgesia assay (radiant heat tail flick), mice; assay type: in vivo, mouse; settings: intravenous, FIG. 3
# Description: Male ICR mice (20-25 g) or male Sprague-Dawley rats (250-300 g) (Harlan Sprague-Dawley Inc., Indianapolis, Ind.) were used for these experiments. Animals were housed four per cage in an animal care facility maintained at 22±0.5° C. with an alternating 12 hr light-dark cycle. Food and water were available ad libitum. Animals were used only once.
# All drugs were dissolved in sterile saline and were prepared so that the proper dose would be delivered in 5 μl (i.c.v.), 100 μl (i.v.), 100 μl (s.c.) and 100 μl (i.m.) of the vehicle. All rodents were recorded for baseline latency before injection of the drug. A morphine control was used with the i.c.v. and i.v. injection procedures to compare the analgesic efficacies of test compounds. […]
# The rodents were placed into restraint holders and their tails were properly placed under the radiant heat beam. The beam was turned on and the time until the animal flicked their tail from under the beam was recorded at each time point. […]
# The raw data (recorded times) was converted to a percentage of the maximum possible effect (% M.P.E.) which was determined as 15 seconds. % M.P.E. was determined by the following equation: % M.P.E.=(Recorded time−Baseline)/(15−Baseline)×100
# These percentages then allow the compound to be plotted according to % M.P.E. vs. Time. The curve can then be analyzed to determine the area under the curve (AUC).
Molecule,half-life ([1]; blood plasma) [min],half-lives in either brain or blood (in words) [1],half-life [2] [min],in situ uptake RBr value (rat brain),time mark at which 50% M.P.E. is seen (male ICR mice) [min]
"NC(=O)[C@H](Cc1ccccc1)NC(=O)[C@H](Cc1ccccc1)NC(=O)[C@@H]1CCCN1C(=O)[C@@H](N)Cc1ccc(O)cc1 [endomorphin II, H-Tyr-Pro-Phe-Phe-NH2]",3.2,on the order of minutes,13,,
"C[C@@H](NC(=O)[C@@H](N)Cc1ccc(O)cc1)C(=O)NCC(=O)N[C@@H](Cc1ccccc1)C(=O)NNC(=O)[C@H](Cc1ccccc1)NC(=O)CNC(=O)[C@@H](C)NC(=O)[C@@H](N)Cc1ccc(O)cc1 [native biphalin, (H-Tyr-D-Ala-Gly-Phe-NH—)2]",,,,7.26±0.11,90
H-Tyr-Gly-Gly-Phe-Leu-Arg-Arg-Ile-Arg-Pro-Lys-NH2 (H-YGGFLRRIRPK-NH2) [dynorphin],,on the order of minutes,,,
Tyr-D-Pen-Gly-Phe-D-Pen [I^125 DPDPE],,,,3.54±0.30,

# — patent publication US8440623B2, “Polymer stabilized neuropeptides” (Nektar Therapeutics, priority 1999, dated 2013)
